Columns and labels:
[1] = Instantaneous dissolution of coated tablets in 5% human saliva solution, LC/MS/MS; type: physicochemical
Text: A typical procedure for preparing the instantaneous dissolution solutions of coated tablets is described as follows: a tablet comprising a core and a film coating—in this case a coated eszopiclone tablet—is randomly selected, and then placed into a basket sinker (e.g., Hanson Research Part # ENMISC, BSK008-JP 8 mesh, 0.76″ L×0.41″ W) with long handle (made from stainless steel tubing). The basket is then immersed in dissolution diluent (e.g., 5% human saliva solution) in vial 1 for 2-5 seconds, then moved to vial 2 for 2-5 seconds dipping and so on with the same tablet. The dissolution diluents (e.g., 5% human saliva solution in water) can be prepared by mixing thoroughly about 50 mL of normal human saliva and about 950 mL of water in a suitable container. About 5 mL of the 5% human saliva solution is then pipetted into several scintillation vials (approximately 20 mL volume). This procedure has been employed with tablets coated with about 2-4% coating by weight
Alternatively, the dipping experiment described above may be carried out by immersing the tablet in the basket in dissolution diluents (e.g., about 5% human saliva solution in water) in vial 1, moving the basket up and down for about 2-5 seconds at a speed of approximate 1 dip every two seconds; remove the basket from the diluent; take a sample of the diluent; re-immerse the tablet in the same vial. Continue the experiment similarly to collect samples until the tablet disintegrates or the preselected time course is completed, whichever comes first. In this embodiment, a new tablet is used in each vial. The experiment is repeated as described for additional nine or ten tablets (total of 10 tablets). The concentration of active ingredient, e.g., eszopiclone, in the sample solutions is then determined using LC/MS/MS (ESI mode, positive MRM scan type). The dissolution instantaneous profile of the tablets is constructed by plotting logarithmic concentration of eszopiclone versus time in seconds.
Another typical procedure for preparing the instantaneous dissolution solutions of coated tablets is described as follows: a number of tablets comprising a core and a film coating—in this case coated eszopiclone tablets—are transferred into basket sinkers and into a series of vials containing the dissolution diluents. The basket is then immersed in dissolution diluents (e.g., 5% human saliva solution in water) in vial 1 for 5 seconds, in vial 2 for 10 seconds, in vial 3 for 15 seconds dipping and so on with the series of tablets. The dissolution diluents (e.g., 5% human saliva solution in water) can be prepared by mixing thoroughly 50 mL of normal human saliva and 950 mL of water in a suitable container. About 5 mL of the 5% human saliva solution is then pipetted into several scintillation vials (approximately 20 mL volume). This procedure has been employed with tablets coated with 3-8% coating by weight.
In each scenario above, the concentration of core material, e.g., eszopiclone, the active ingredient in the sample solutions, is determined using LC/MS/MS (ESI mode, positive MRM scan type). The dissolution instantaneous profile of the tablets is constructed by plotting logarithmic concentration of eszopiclone versus time in seconds.
Described herein are instantaneous dissolution methods comprising a step using a LC/MS/MS technique to measure the concentration of the active ingredient in the instantaneous dissolution solution. Specifically, the LC/MS/MS procedure includes: centrifuge samples from above instantaneous dissolution solution at 6000×g for 5 minutes (if sample appears cloudy) to obtain clear solution; take out supernatant or clear solution and load into HPLC auto samplers. […]

[2] = Sample solution stability (short term), HPLC-MS/MS method validation; type: physicochemical; conditions: stored at room temperature
Description: Described herein are instantaneous dissolution methods comprising a step using a LC/MS/MS technique to measure the concentration of the active ingredient in the instantaneous dissolution solution. Specifically, the LC/MS/MS procedure includes: centrifuge samples from above instantaneous dissolution solution at 6000×g for 5 minutes (if sample appears cloudy) to obtain clear solution; take out supernatant or clear solution and load into HPLC auto samplers. If the concentration of the active ingredient is above the upper calibration range (100 ng/mL), the sample solution will go through further dilution, for instance, by pipetting 100 μL of the centrifuged sample solution into 4.9 mL of sample diluents; If dilution sample is still above the calibration range, a serial dilution can be made with the dilution solution containing Internal Standard. Final diluted sample concentration should fall into the calibration range.
A summary of the HPLC-MS/MS method validation results can be found in the table below: […]

CN1CCN(C(=O)O[C@H]2c3nccnc3C(=O)N2c2ccc(Cl)cn2)CC1 [Eszopiclone, (S)-(6-(5-chloro-2-pyridyl)-5-[(4-methyl-1-piperazinyl)carbonyloxy]-7-oxo-6,7-dihydro-5H-pyrrolo[3,4-b]pyrazine)]
Mean, % dissolved results ([1]; Time 5 seconds): 5.317%
Mean, % dissolved results ([1]; Time 10 seconds): 6.875%
Mean, % dissolved results ([1]; Time 15 seconds): 7.461%
Mean, % dissolved results ([1]; Time 20 seconds): 14.144%
Mean, % dissolved results ([1]; Time 25 seconds): 12.222%
Mean, % dissolved results ([1]; Time 30 seconds): 16.625%
Mean, % dissolved results ([1]; Time 35 seconds): 22.404%
Mean, % dissolved results ([1]; Time 40 seconds): 14.658%
Mean, % dissolved results ([1]; Time 45 seconds): 14.989%
Mean, % dissolved results ([1]; Time 50 seconds): 12.477%
Sample solution stability (short term) [2]: Sample solutions are stable for 8 hours
